Laboratory results from PMC8159961, “Exploring protein hotspots by optimized fragment pharmacophores” (Nature Communications, 2021).

Key:
[1] = molecular target: T1, human 5-HT6 receptor (Homo sapiens, UniProt P50406); test: GPCR radioligand binding assay, [3H]-LSD displacement, HEK293 membranes; details: for 5-HT6 % Inhibition by plate position: 10 µM; for %inh 5-HT6 average: average of exp_1 and exp_2; for %inh 5-HT6 corrected*: average, values below 0 and above 100% were set as 0 and 100; for %inh 5-HT6 exp_1: replicate exp_1; for %inh 5-HT6 exp_2: replicate exp_2
T1 construct: expressed in transfected cells
T1 sequence (P50406 whole entry): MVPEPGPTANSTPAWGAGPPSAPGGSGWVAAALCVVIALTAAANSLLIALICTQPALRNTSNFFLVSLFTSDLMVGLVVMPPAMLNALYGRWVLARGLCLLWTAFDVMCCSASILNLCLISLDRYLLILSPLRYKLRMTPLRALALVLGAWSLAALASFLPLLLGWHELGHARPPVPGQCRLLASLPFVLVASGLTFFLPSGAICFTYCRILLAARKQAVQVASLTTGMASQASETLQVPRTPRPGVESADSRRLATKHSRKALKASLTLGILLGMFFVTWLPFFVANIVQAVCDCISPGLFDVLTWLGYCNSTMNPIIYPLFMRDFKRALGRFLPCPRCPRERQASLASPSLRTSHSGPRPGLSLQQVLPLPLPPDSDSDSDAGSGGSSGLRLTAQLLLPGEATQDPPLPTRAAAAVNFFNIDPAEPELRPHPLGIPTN

[2] = molecular target: T2, human 5-HT1A receptor (Homo sapiens, UniProt P08908); test: GPCR radioligand binding assay, [3H]-8-OH-DPAT displacement, HEK293 membranes; details: for %inh 5-HT1A average: average of exp_1 and exp_2; for %inh 5-HT1A corrected*: average, values below 0 and above 100% were set as 0 and 100; for %inh 5-HT1A exp_1: replicate exp_1; for %inh 5-HT1A exp_2: replicate exp_2; for 5-HT1A % Inhibition by plate position: 10 µM
T2 construct: expressed in transfected cells
T2 sequence (P08908 1-422): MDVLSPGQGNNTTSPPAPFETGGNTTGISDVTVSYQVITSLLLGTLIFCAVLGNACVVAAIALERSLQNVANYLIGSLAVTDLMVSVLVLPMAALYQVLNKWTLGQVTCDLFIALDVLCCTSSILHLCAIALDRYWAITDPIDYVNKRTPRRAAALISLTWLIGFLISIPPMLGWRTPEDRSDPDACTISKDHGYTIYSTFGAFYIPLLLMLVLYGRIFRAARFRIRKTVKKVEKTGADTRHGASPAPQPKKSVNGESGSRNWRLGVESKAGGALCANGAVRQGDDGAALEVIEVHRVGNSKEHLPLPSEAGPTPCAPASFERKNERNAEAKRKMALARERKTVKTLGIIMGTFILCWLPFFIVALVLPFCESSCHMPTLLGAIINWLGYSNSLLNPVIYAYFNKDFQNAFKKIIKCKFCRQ

[3] = molecular target: T3, human 5-HT7b receptor (Homo sapiens, UniProt P34969); test: GPCR radioligand binding assay, [3H]-5-CT displacement, HEK293 membranes; details: for 5-HT7 % Inhibition by plate position: 10 µM; for %inh 5-HT7 average: average of exp_1 and exp_2; for %inh 5-HT7 exp_1: replicate exp_1; for %inh 5-HT7 exp_2: replicate exp_2
T3 construct: expressed in transfected cells
T3 sequence (P34969 1-432): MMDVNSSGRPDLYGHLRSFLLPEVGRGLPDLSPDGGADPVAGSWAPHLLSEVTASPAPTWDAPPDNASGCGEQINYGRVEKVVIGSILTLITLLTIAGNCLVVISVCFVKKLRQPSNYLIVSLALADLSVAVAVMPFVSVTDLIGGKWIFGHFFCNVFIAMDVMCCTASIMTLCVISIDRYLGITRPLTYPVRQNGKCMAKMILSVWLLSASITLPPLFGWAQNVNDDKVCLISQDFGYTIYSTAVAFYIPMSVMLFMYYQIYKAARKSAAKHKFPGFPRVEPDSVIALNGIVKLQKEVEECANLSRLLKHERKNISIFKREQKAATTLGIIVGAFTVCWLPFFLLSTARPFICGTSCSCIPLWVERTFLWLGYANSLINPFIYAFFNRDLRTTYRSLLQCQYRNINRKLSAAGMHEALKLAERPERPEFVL

SMILES | 5-HT6 % Inhibition by plate position [1] [%] | %inh 5-HT6 average [1] [%] | %inh 5-HT6 corrected* [1] [%] | %inh 5-HT6 exp_1 [1] [%] | %inh 5-HT6 exp_2 [1] [%] | %inh 5-HT1A average [2] [%] | %inh 5-HT1A corrected* [2] [%] | %inh 5-HT1A exp_1 [2] [%] | %inh 5-HT1A exp_2 [2] [%] | 5-HT7 % Inhibition by plate position [3] [%] | %inh 5-HT7 average [3] [%] | %inh 5-HT7 exp_1 [3] [%] | %inh 5-HT7 exp_2 [3] [%] | 5-HT1A % Inhibition by plate position [2] [%]
COc1cccc(NC2=NCCCCC2)c1 [E8] | 14 | 14 | 14 | 17 | 12 | 11 | 11 | 11 | 11 | 0 | -5 | 3.36 | -13 | 
N#Cc1ccc(C(=O)N2CCOCC2)cc1 [E10] | 37 | 37 | 37 | 33 | 41 | -13 |  | -3 | -23 | 9 |  | 10 | 7 | 0
Oc1ccc(C2CCNCC2)cc1 [E11] | 43 | 43 | 43 | 44 | 42 | 5.37 | 5.37 | 3 | 8 | 11 |  | 10 | 12 | 
COC(=O)c1c(C)nc(C2CC2)[nH]c1=O [F1] | 41 | 41 | 41 | 38 | 44 | 16 | 16 | 17 | 15 | 23 |  | 23 | 22 | 
N#CC1CCS(=O)(=O)C1 (centres unmarked) [F2] | 22 | 22 | 22 | 22 | 22 | -0.934 |  | 12 | -14 | 20 |  | 21 | 19 | 0
N#CCCN1CCc2ccccc21 [F4] | 23 | 23 | 23 | 26 | 20 | -7 |  | -1.29 | -12 | 3 |  | 1.81 | 4.42 | 0
O=C(O)c1cccc(Nc2ncccn2)c1 [F5] | 50 | 50 | 50 | 58 | 42 | 10 | 10 | 9 | 11 | 12 |  | 11 | 13 | 
O=C(Nc1ccccc1)C1CC1 [F6] | 41 | 41 | 41 | 40 | 42 | 12 | 12 | 10 | 14 | 0 | -2.69 | -1.55 | -4 | 
Oc1nnc(-c2ccccc2)o1 [F7] | 14 | 14 | 14 | 15 | 14 | -4 |  | 1.6 | -10 | 1 |  | -12 | 14 | 0
Cc1nccn1Cc1cccc(C#N)c1 [F8] | 41 | 41 | 41 | 40 | 42 | 10 | 10 | 7 | 13 | 9 |  | 14 | 3.57 | 
CC(CN)N1CCc2sccc2C1 (centres unmarked) [F9] | 15 | 15 | 15 | 14 | 17 | 33 | 33 | 30 | 36 | 8 |  | 13 | 3.54 | 
NCC1(c2ccccc2)CCOCC1 [F10] | 23 | 23 | 23 | 20 | 25 | 11 | 11 | 10 | 12 | 6 |  | -0.903 | 13 | 
Oc1cnc(-c2ccccc2)nc1 [F11] | 41 | 41 | 41 | 42 | 39 | 6.48 | 6.48 | 14 | -1.43 | 0.572 |  | -8 | 9 | 
Cc1cc(C)c2c(=O)[nH]n(C)c2n1 [F12] | 34 | 34 | 34 | 35 | 32 | 5.64 | 5.64 | 4.73 | 6.55 | 11 |  | 14 | 7 | 
